Results reported in ChEMBL document CHEMBL5543127, “Design, Synthesis, and Biological Evaluation of 2-Phenoxyalkylhydrazide Benzoxazole Derivatives as Quorum Sensing Inhibitors with Strong Antibiofilm Effect” (J Med Chem, 2024).
Values after ≈ are worked out from the molar mass of the structure shown. Active and inactive are the calls of the source. The rule behind the calls is not given here.

Tests used:
Bacillus subtilis = test: Anti-microbial activity against Bacillus subtilis ATCC9372 incubated for 20 hrs By CLSI based micro-dilution method; assay type: functional
Bacillus pumilus = test: Anti-microbial activity against Bacillus pumilus CMCC63202 incubated for 20 hrs By CLSI based micro-dilution method; assay type: functional
Staphylococcus aureus [1] = test: Anti-microbial activity against erythromycin-susceptible Staphylococcus aureus ATCC25923 incubated for 20 hrs By CLSI based micro-dilution method; assay type: functional
Staphylococcus aureus [2] = test: Anti-microbial activity against methicillin-resistant Staphylococcus aureus ATCC43300 incubated for 20 hrs By CLSI based micro-dilution method; assay type: functional
Pseudomonas aeruginosa [3] = test: Anti-microbial activity against penicillin-susceptible Pseudomonas aeruginosa 27853 incubated for 20 hrs By CLSI based micro-dilution method; assay type: functional
Escherichia coli = test: Anti-microbial activity against penicillin-susceptible Escherichia coli ATCC25922 incubated for 20 hrs By CLSI based micro-dilution method; assay type: functional
Pseudomonas aeruginosa [4] = test: Anti-microbial activity against Pseudomonas aeruginosa PAO1 incubated for 20 hrs By CLSI based micro-dilution method; assay type: functional
[5] = Inhibition of quorum sensing system in Pseudomonas aeruginosa PAO1 at logarithmic growth period assessed as inhibition of pyocyanin production at 102.4 microg/ml incubated for 18 hrs by pyocyanin inhibition assay; details: dose 102.4 µg/ml
Pseudomonas aeruginosa [6] = test: Antibacterial activity against Pseudomonas aeruginosa PAO1 at logarithmic growth phase assessed as growth inhibition at 153.6 microg/ml measured upto 25 hrs by growth curve assay; assay type: functional, organism-based; details: dose 153.6 µg/ml
Pseudomonas aeruginosa [7] = test: Inhibition of protease in logarithmic growth phase Pseudomonas aeruginosa PAO1 assessed as inhibition rate at 102.4 microg/ml measured after 32 hrs; details: dose 102.4 µg/ml
Pseudomonas aeruginosa [8] = test: Antibacterial activity against Pseudomonas aeruginosa 27853 at logarithmic growth phase assessed as growth inhibition at 153.6 microg/ml measured upto 25 hrs by growth curve assay; assay type: functional, organism-based; details: dose 153.6 µg/ml

Row | Structure (SMILES) | MIC (Bacillus subtilis) [µg/mL] | MIC (Bacillus pumilus) [µg/mL] | MIC (Staphylococcus aureus [1]) [µg/mL] | MIC (Staphylococcus aureus [2]) [µg/mL] | MIC (Pseudomonas aeruginosa [3]) [µg/mL] | MIC (Escherichia coli) [µg/mL] | MIC (Pseudomonas aeruginosa [4]) [µg/mL] | inhibition [5] | Activity (Pseudomonas aeruginosa [6]) | inhibition (Pseudomonas aeruginosa [7]) [%] | Activity (Pseudomonas aeruginosa [8])
1 | Cc1ccc(OCC(=O)NNc2nc3ccccc3o2)cc1 | 512 (≈ 1720 µM) | > 512 | 512 (≈ 1720 µM) | 512 (≈ 1720 µM) | 512 (≈ 1720 µM) | > 512 | > 512 | inactive | inactive | 13.9 | inactive
2 | Cc1cccc(C(=O)N/N=c2\sc3ccccc3n2C)c1 | 512 (≈ 1720 µM) | > 512 | > 512 | > 512 | > 512 | > 512 | > 512 |  |  |  | 
3 | CCCC(=O)N/N=c1\sc2ccccc2n1C | > 512 | > 512 | 512 (≈ 2050 µM) | > 512 | > 512 | > 512 | > 512 | Active |  |  | 
4 | Cc1cccc(C(=O)NNc2nc3ccccc3s2)c1 | 512 (≈ 1810 µM) | 512 (≈ 1810 µM) | > 512 | > 512 | 512 (≈ 1810 µM) | > 512 | > 512 | 62.8% |  |  | 
5 | Cc1ccc(C(=O)N/N=c2\sc3ccccc3n2C)cc1 | > 512 | > 512 | > 512 | > 512 | > 512 | > 512 | > 512 |  |  |  | 
6 | O=C(CCCCCOc1ccc(F)cc1)NNc1nc2ccccc2o1 | 512 (≈ 1430 µM) | > 512 | 512 (≈ 1430 µM) | > 512 | 512 (≈ 1430 µM) | > 512 | > 512 | inactive |  |  | 
7 | O=C(NNc1nc2ccccc2s1)c1ccc(F)cc1 | 512 (≈ 1780 µM) | > 512 | > 512 | 256 (≈ 891 µM) | 512 (≈ 1780 µM) | > 512 | > 512 |  |  |  | 
8 | Cn1c(=NNC(=O)CCCCOc2ccc(Cl)cc2)sc2ccccc21 | 512 (≈ 1310 µM) | 256 (≈ 657 µM) | 256 (≈ 657 µM) |  | > 512 | > 512 | > 512 | Active |  |  | 
9 | CCCCC(=O)N/N=c1\sc2ccccc2n1C | > 512 | > 512 | 512 (≈ 1940 µM) | > 512 | > 512 | > 512 | > 512 | Active |  |  | 
10 | Cc1cccc2sc(NNC(=O)CCCCOc3ccc(Cl)cc3)nc12 | 512 (≈ 1310 µM) | 512 (≈ 1310 µM) | > 512 | 512 (≈ 1310 µM) | > 512 | > 512 | > 512 | 42.2% |  |  | 
11 | O=C(CCCCCOc1ccc(Cl)cc1)NNc1nc2ccccc2o1 | 512 (≈ 1370 µM) | 256 (≈ 685 µM) | 256 (≈ 685 µM) | 256 (≈ 685 µM) | 512 (≈ 1370 µM) | > 512 | > 512 | inactive |  |  | 
12 | CCCCCCCC(=O)N/N=c1\sc2ccccc2n1C | > 512 | > 512 | > 512 | > 512 | > 512 | > 512 | > 512 |  |  | > 20 | 
13 | COc1cccc(/C=N/Nc2nc3ccccc3o2)c1 | 512 (≈ 1920 µM) | 512 (≈ 1920 µM) | 128 (≈ 479 µM) | > 512 | > 512 | > 512 | > 512 | inactive | inactive |  | inactive
14 | CCCCCC(=O)N/N=c1\sc2ccccc2n1C | > 512 | > 512 | 256 (≈ 923 µM) | > 512 | > 512 | > 512 | > 512 |  |  |  | 
15 | O=C(CCCOc1ccc(F)cc1)NNc1nc2ccccc2o1 | 512 (≈ 1550 µM) | 256 (≈ 777 µM) | 256 (≈ 777 µM) | 256 (≈ 777 µM) | 128 (≈ 389 µM) | > 512 | > 512 | inactive |  | 30 | 
16 | Cn1c(=NNC(=O)CCCCOc2ccc(F)cc2)sc2ccccc21 | 512 (≈ 1370 µM) | 256 (≈ 685 µM) |  |  | > 512 | > 512 | > 512 | Active |  |  | 
17 | CC(C)c1ccc(/C=N/Nc2nc3ccccc3o2)cc1 | 512 (≈ 1830 µM) | 512 (≈ 1830 µM) | 64 (≈ 229 µM) | 256 (≈ 916 µM) | > 512 | > 512 | > 512 | inactive |  |  | 
18 | Brc1ccccc1/C=N/Nc1nc2ccccc2o1 | 512 (≈ 1620 µM) | > 512 | 128 (≈ 405 µM) | 256 (≈ 810 µM) | > 512 | > 512 | > 512 | inactive |  |  | 

Row | Structure (SMILES) | MIC (Bacillus subtilis) [µg/mL] | MIC (Bacillus pumilus) [µg/mL] | MIC (Staphylococcus aureus [1]) [µg/mL] | MIC (Staphylococcus aureus [2]) [µg/mL] | MIC (Pseudomonas aeruginosa [3]) [µg/mL] | MIC (Escherichia coli) [µg/mL] | MIC (Pseudomonas aeruginosa [4]) [µg/mL] | inhibition [5] | Activity (Pseudomonas aeruginosa [6]) | inhibition (Pseudomonas aeruginosa [7]) [%] | Activity (Pseudomonas aeruginosa [8])
19 | COc1ccc(OCCCCCC(=O)NNc2nc3ccccc3o2)cc1 | 512 (≈ 1390 µM) | 512 (≈ 1390 µM) | 256 (≈ 693 µM) | 512 (≈ 1390 µM) | 512 (≈ 1390 µM) | > 512 | > 512 | inactive |  |  | 
20 | O=C(NNc1nc2ccccc2s1)c1cccc(Cl)c1 | 512 (≈ 1690 µM) | 256 (≈ 843 µM) | > 512 | 128 (≈ 421 µM) | 512 (≈ 1690 µM) | > 512 | > 512 |  |  |  | 
21 | COc1ccccc1C(=O)N/N=c1\sc2ccccc2n1C | > 512 | > 512 | > 512 | > 512 | > 512 | > 512 | > 512 |  |  |  | 
22 | CCCCCCCCC(=O)N/N=c1\sc2ccccc2n1C | > 512 | > 512 | > 512 | > 512 | > 512 | > 512 | > 512 | Active |  |  | 
23 | COc1ccccc1/C=N/Nc1nc2ccccc2o1 | 512 (≈ 1920 µM) | > 512 | 256 (≈ 958 µM) | > 512 | > 512 | > 512 | > 512 | inactive | inactive |  | inactive
24 | O=C(CCCCOc1ccc(F)cc1)NNc1nc2ccccc2s1 | > 512 | > 512 | > 512 | > 512 | > 512 | > 512 | > 512 | Active | inactive |  | inactive
25 | CCCCCCC(=O)N/N=c1\sc2ccccc2n1C | > 512 | > 512 | > 512 | > 512 | > 512 | > 512 | > 512 |  |  |  | 
26 | CC[C@H]1OC(=O)[C@H](C)[C@@H](O[C@H]2C[C@@](C)(OC)[C@@H](O)[C@H](C)O2)[C@H](C)[C@@H](O[C@@H]2O[C@H](C)C[C@H](N(C)C)[C@H]2O)[C@](C)(OC)C[C@@H](C)C(=O)[C@H](C)[C@@H](O)[C@]1(C)O [CLARITHROMYCIN] | 0.25 (≈ 0.334 µM) | 0.25 (≈ 0.334 µM) | 0.25 (≈ 0.334 µM) | 16 (≈ 21.4 µM) | 128 (≈ 171 µM) | 128 (≈ 171 µM) | 256 (≈ 342 µM) |  |  |  | 
27 | Cn1/c(=N/NC(=O)c2ccc(F)cc2)sc2ccccc21 | > 512 | > 512 | > 512 | > 512 | > 512 | > 512 | > 512 |  | inactive | > 20 | inactive
28 | CCCCCCCCCC(=O)N/N=c1\sc2ccccc2n1C | 512 (≈ 1540 µM) | > 512 | 512 (≈ 1540 µM) | > 512 | > 512 | > 512 | > 512 | Active |  |  | 
29 | CCCCCCCCCCCC(=O)N/N=c1\sc2ccccc2n1C | > 512 | > 512 | > 512 | > 512 | > 512 | > 512 | > 512 |  | inactive | > 20 | inactive
30 | Cn1/c(=N/NC(=O)c2ccccc2F)sc2ccccc21 | > 512 | > 512 | > 512 | > 512 | > 512 | > 512 | > 512 |  | inactive | > 20 | inactive
31 | Clc1cccc(/C=N/Nc2nc3ccccc3o2)c1 | 512 (≈ 1880 µM) | 512 (≈ 1880 µM) | 256 (≈ 942 µM) | > 512 | > 512 | > 512 | > 512 | inactive | inactive |  | inactive
32 | Clc1ccc(/C=N/Nc2nc3ccccc3o2)cc1Cl | 512 (≈ 1670 µM) | > 512 | 64 (≈ 209 µM) | 512 (≈ 1670 µM) | > 512 | > 512 | > 512 | inactive |  |  | 
33 | O=C(CCCOc1cccc(F)c1)NNc1nc2ccccc2o1 | > 512 | > 512 | > 512 | > 512 | 512 (≈ 1550 µM) | > 512 | > 512 | inactive |  | 30 | 
34 | O=C(CCCCCOc1cccc(F)c1)NNc1nc2ccccc2o1 | 512 (≈ 1430 µM) | > 512 | 256 (≈ 716 µM) | > 512 | 512 (≈ 1430 µM) | > 512 | > 512 | inactive |  |  | 
35 | O=[N+]([O-])c1ccccc1/C=N/Nc1nc2ccccc2o1 | 512 (≈ 1810 µM) | 256 (≈ 907 µM) | 128 (≈ 453 µM) | 256 (≈ 907 µM) | > 512 | > 512 | 256 (≈ 907 µM) | inactive |  |  | 
